Test results published in ChEMBL document CHEMBL1140088, “N9-substituted 2,4-diaminoquinazolines: synthesis and biological evaluation of lipophilic inhibitors of pneumocystis carinii and toxoplasma gondii dihydrofolate reductase” (J Med Chem, 2008).

Tests used:
Dihydrofolate reductase [1] = biological target: T1, Dihydrofolate reductase (Pneumocystis carinii, UniProt P16184)
T1 sequence (P16184 whole entry): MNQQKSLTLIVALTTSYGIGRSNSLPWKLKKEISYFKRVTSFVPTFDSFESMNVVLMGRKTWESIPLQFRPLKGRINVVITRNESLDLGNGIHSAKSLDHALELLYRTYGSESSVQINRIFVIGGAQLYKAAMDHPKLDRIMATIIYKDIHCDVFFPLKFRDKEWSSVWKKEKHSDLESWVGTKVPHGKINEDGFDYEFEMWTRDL
Description: Inhibition of Pneumocystis carinii dihydrofolate reductase

Dihydrofolate reductase [2] = biological target: T2, Dihydrofolate reductase (Rattus norvegicus, UniProt Q920D2)
T2 sequence (Q920D2 whole entry): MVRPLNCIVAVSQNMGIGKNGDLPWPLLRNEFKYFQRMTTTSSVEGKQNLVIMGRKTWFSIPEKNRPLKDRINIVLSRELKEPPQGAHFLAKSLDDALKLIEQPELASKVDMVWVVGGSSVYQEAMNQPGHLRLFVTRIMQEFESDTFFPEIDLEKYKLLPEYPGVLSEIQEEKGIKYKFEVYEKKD
Description: Inhibition of rat liver dihydrofolate reductase

Dihydrofolate reductase [3] = biological target: T3, Dihydrofolate reductase (Mycobacterium avium, UniProt O30463); test: Inhibition of Mycobacterium avium dihydrofolate reductase
T3 sequence (O30463 whole entry): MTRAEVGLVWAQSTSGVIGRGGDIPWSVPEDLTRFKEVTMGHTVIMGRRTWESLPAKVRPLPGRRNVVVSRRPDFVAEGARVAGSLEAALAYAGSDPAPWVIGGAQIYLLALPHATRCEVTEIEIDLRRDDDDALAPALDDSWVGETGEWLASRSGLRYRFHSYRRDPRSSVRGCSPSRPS

[4] = biological target: T4, Bifunctional dihydrofolate reductase-thymidylate synthase (Toxoplasma gondii, UniProt Q07422)
T4 sequence (Q07422 whole entry): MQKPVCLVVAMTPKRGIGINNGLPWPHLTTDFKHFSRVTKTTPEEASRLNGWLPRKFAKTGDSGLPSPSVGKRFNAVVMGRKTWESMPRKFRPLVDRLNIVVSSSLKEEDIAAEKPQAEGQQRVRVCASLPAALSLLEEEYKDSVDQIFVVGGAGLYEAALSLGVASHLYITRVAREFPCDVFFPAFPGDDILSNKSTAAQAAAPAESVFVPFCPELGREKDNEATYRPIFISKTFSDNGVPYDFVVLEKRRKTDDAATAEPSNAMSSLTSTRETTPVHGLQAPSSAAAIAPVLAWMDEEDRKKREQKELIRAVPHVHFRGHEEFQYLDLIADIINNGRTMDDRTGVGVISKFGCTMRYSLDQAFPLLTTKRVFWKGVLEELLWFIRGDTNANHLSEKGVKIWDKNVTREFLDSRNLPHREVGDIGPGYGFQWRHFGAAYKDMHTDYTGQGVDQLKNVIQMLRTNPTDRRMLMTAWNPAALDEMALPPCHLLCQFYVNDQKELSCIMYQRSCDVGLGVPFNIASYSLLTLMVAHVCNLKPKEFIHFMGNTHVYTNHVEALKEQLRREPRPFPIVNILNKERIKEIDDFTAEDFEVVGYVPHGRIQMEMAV
Description: Inhibition of Toxoplasma gondii dihydrofolate reductase

| Structure (SMILES) | IC50 (Dihydrofolate reductase [1]) | IC50 (Dihydrofolate reductase [2]) | IC50 (Dihydrofolate reductase [3]) | IC50 [4] |
| --- | --- | --- | --- | --- |
| CCN(Cc1cc(Cl)cc(Cl)c1Cl)c1ccc2nc(N)nc(N)c2c1 | 6.9 nM | 19 nM | 14 nM | 19 nM |
| CCN(Cc1cc(OC)ccc1OC)c1ccc2nc(N)nc(N)c2c1 | 9.9 nM | 4.8 nM | 0.98 nM | 3.7 nM |
| CCN(Cc1ccc2ccccc2c1)c1ccc2nc(N)nc(N)c2c1 | 7.2 nM | 14.5 nM | 2.3 nM | 12 nM |
| CCCN(Cc1cc(OC)ccc1OC)c1ccc2nc(N)nc(N)c2c1 | 38 nM | 5.3 nM | 3.3 nM | 9.5 nM |
| CCN(Cc1cccc2ccccc12)c1ccc2nc(N)nc(N)c2c1 | 2.5 nM | 6.5 nM | 2.9 nM | 7.8 nM |
| CCN(Cc1ccccc1)c1ccc2nc(N)nc(N)c2c1 | 21 nM | 4.1 nM |  | 3.6 nM |
